From PMC9814544 (Communications Chemistry, 2020) come the findings set out here.

The target of data set [1] is T1, LOX129 (LOX-1 129-273) (Homo sapiens, UniProt P78380).
T1 construct: 6His-tag with thrombin cleavage site (N, cleaved yes); made in house; host or cells: E. coli SHuffle cells (New England BioLabs), pET28a
The experiment in a line: Isothermal titration calorimetry. Type of data set: binding. The protocol: For additional biophysical profiling of the specific SPR binders, isothermal titration calorimetry (ITC) was used. Due to limited solubility of the compounds, an inverse setup was used by titrating LOX129 into compound solution. The mean Kd value of three independent measurements is 7 µM (Supplementary Table 4).
Isothermal titration calorimetry experiments were conducted on a MicroCal iTC200 instrument (Malvern) using LOX-1 that had been passed through a PD-10 desalting column (GE Healthcare) equilibrated with 20 mM Tris pH 7.3 and 150 mM NaCl. Complete saturation of 35 µM, respectively 40 µM LOX inhibitor was typically achieved by injecting 18× 2 µl aliquots of 300 µM LOX-1 at a temperature of 25 °C. As a control 300 µM LOX-1 was injected in buffer (n = 1, Supplementary Fig. 19).
The thermodynamic binding parameters were extracted by non-linear regression analysis of the binding isotherms (MicroCal PEAQ-ITC Analysis Software). A single-site binding model was applied yielding the binding enthalpy (ΔH), stoichiometry (n), entropy (ΔS) and association constant (Ka). The binding isotherm of protein in buffer control was not subtracted during data evaluation.
On the technique in general: In ITC the heat of successive injections is recorded.

For data set [2], the target named is T1, LOX129 (LOX-1 129-273). The experiment in a line: Surface plasmon resonance, immobilized LOX129. Type of data set: binding. The method, then: To enable surface plasmon resonance spectroscopy (SPR), LOX129 was immobilized on a SPR chip by amine coupling and compounds were analyzed for binding. Based on the individual sensorgrams the compounds were classified as non-binders, over-stoichiometric binders or dose-dependent binders. In total four different structural classes could be confirmed as dose-dependent and stoichiometric binders. […] The mean binding ratio is 0.78 (Supplementary Table 3). Assuming a high percentage of active, binding competent protein on the chip surface, this ratio represents less than one BI-0115 molecule per LOX-1 monomer.
Binding studies were performed using a Biacore T200 instrument (GE Healthcare) at 25 °C in 20 mM HEPES pH 6.8, 150 mM NaCl, 0.05% Tween 20, and 1% DMSO at a flow rate of 30 μL/min. The interaction analyses were performed in the multi-cycle kinetic mode using 120 s association time and 600 s dissociation time at the following LOX-1 inhibitor concentrations 0.391, 0.78, 1.56, 3.125, 6.25, 12.5 and 25 µM. Data were analyzed using the Biacore T200 Evaluation Software 2.0. Due to a transient binding, the KD was determined from a plot of steady state response levels against analyte concentration (affinity plot). The mean KD value was determined from four individual experiments (Supplementary Table 3). The binding ratio is the average number of compound molecules bound per LOX-1 protein on the surface.
For orientation: In SPR one partner is held on a chip, and binding of the other changes the refractive index at the surface.

In the next data set the test system is T2, LOX129 (LOX-1).
T2 construct: 6His-tag with thrombin cleavage site (N, cleaved yes); made in house; host or cells: E. coli SHuffle cells (New England BioLabs), pET28a
The experiment in a line: Native ESI-MS of LOX-1 with ligand. Format: binding, human. The settings on record: Vc = 60V; up to 10 eq ligand. The method, then:
This is in agreement with the biophysical data obtained so far. The ITC measurements gave a stoichiometry of protein:ligand of 1.8 which fits to multiples of a 2:1 complex. To confirm that the crystallographically observed tetrameric arrangement exists also in solution native Electrospray-Ionization Mass Spectrometry (ESI-MS) analysis was used. A MS experiment using covalent dimeric LOX129 under denaturing conditions was performed giving a mass of 33773 Da, corresponding to a mass difference of 13 Da to the theoretical molecular weight of 33786 Da (Supplementary Fig. 9). This mass difference corresponds to the three intramolecular and the one intermolecular disulfide bonds (14 Da). MS analysis under non denaturing conditions (Fig. 4a) measured LOX129 mainly as a dimer. Only traces of the tetrameric state were detectable. A binding experiment of BI-0115 to LOX-1 was performed using soft MS tuning parameters (Vc = 40V) in order to maintain BI-0115 interactions in the gas phase.
Mass spectrometry experiments were carried out on an electrospray time-of-flight mass spectrometer (LCT, Waters, Manchester, UK) equipped with an automated chip-based nanoESI device (Triversa Nanomate, Advion Biosciences, Ithaca, NY). […]

Data set [3] is described as follows: PAMPA passive permeability. Type of data set: in vitro ADME. The source says:
The PAMPA assay provides data on the passive permeability of test compounds through immobilized artificial phospholipid membranes. The method used was extensively described previously. The number of experiments for BI-0115 is n = 1.
(In PAMPA a lipid-coated filter parts donor from acceptor wells.)

Molecules are shown by their SMILES. “And” between values parts separate entries of the source, which are not always exact repeats. Equal entries are not always repeated.

As to `CCCN1C(=O)c2ccc(Cl)cc2Nc2ncccc21` [BI-0115], the “ITC thermodynamic driving force” value at LOX129 (LOX-1 129-273) [1] (in words) is “strong entropic contribution”. Further, the Kd (usually the free concentration of one partner at which half of the binding sites on the other are occupied at equilibrium, for simple one-to-one binding) at LOX129 (LOX-1 129-273) [1] (mean of n = 3, 300 µM LOX129 dimer titrated into compound, 25 °C, read-out: ITC Kd) is 7 µM and 6.99 µM; at LOX129 (LOX-1 129-273) [2] (mean of n = 4, steady-state fit, 25 °C, read-out: SPR Kd), 4.32 µM and 4.3 µM; on LOX129 (LOX-1 129-273) [2] (measurements 1-4, Supplementary Table 3, read-out: SPR KD, individual measurements), 3.8 µM and 4.6 µM and 4.12 µM and 4.76 µM. Further, at LOX129 (LOX-1 129-273) [1] (stoichiometry, mean of n = 3), the “ITC N (molar ratio protein:inhibitor)” value is 1.8 and 1.77 ±0.34. The SPR binding kinetics entry on LOX129 (LOX-1 129-273) [2] (in words) is reported as “fast binding kinetics”. Further, at LOX129 (LOX-1 129-273) [2] (mean of n = 4, compound molecules bound per LOX-1 protein on the surface), the SPR binding ratio is recorded as 0.78. The “SPR binding ratio, individual measurements” value at LOX129 (LOX-1 129-273) [2] (measurements 1-4, Supplementary Table 3) was 0.79 and 0.84 and 0.73 and 0.77. The “ligand induced tetramerization, increase of the 16+ charge state” value in the data set on LOX129 (LOX-1) is reported as “up to 33%”. Besides, the Papp (in general, the rate of passage across a membrane or cell layer, normalised by area and donor concentration) in data set [3] (PAMPA, n = 1) amounted to 1.5 ×10⁻⁶ cm/s. In addition, the “Permeability, PAMPA assay” value in data set [3] (in words) was “good”.
